Laboratory results reported in patent publication EP1475385A1 (Newron Pharmaceuticals S.p.A., priority 2003, dated 2004).
Like-named read-outs stand apart in the source and are kept apart here.

Key:
KMO = KMO (Homo sapiens, UniProt O15229); conditions: reported in WO 98/40344; read-out: IC50 for KMO inhibition; cited from earlier work
brain KMO = target: T1, brain KMO (Rattus norvegicus, UniProt O88867); experiment: In vitro KMO activity determination (rat brain mitochondria preparation, HPLC of 3-OH-KYN formation); type: biochemical
T1 construct: from tissue; host or cells: rat brain cortex, mitochondrial fraction (male Wistar rats)
T1 sequence (O88867 whole entry): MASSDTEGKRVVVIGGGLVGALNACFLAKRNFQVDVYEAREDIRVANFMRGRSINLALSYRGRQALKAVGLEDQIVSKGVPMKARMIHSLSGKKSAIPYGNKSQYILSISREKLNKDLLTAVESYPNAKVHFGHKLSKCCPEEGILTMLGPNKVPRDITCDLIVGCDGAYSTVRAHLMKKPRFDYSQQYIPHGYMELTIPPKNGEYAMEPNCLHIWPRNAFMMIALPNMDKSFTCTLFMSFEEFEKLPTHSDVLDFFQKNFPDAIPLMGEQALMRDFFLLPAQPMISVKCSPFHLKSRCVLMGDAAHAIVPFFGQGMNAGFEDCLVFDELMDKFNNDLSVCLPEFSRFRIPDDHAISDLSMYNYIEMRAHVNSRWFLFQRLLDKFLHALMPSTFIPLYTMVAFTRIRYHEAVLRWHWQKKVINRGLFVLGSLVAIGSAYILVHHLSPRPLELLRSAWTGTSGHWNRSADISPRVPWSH
Description: Rat brain mitochondria preparation: Male Wistar rats were sacrificed and brain quickly removed, cortex was dissected out on ice and homogenized in 2.5 volumes of ice-cold 0.32 M saccarose using a glass-Teflon homogenizer. After centrifugation at 600 g for 10 min at 4°C, the supernatant was stored and the pellet was washed and centrifuged again. The two supernatants were pooled and centrifuged at 10,000 g for 10 min at 4°C. The pellet was washed in fresh saccarose and centrifuged twice at 15,000 g for 10 min at 4°C. The pellet (corresponding to the mitochondrial fraction) was resuspended in 2.5 volumes of ice-cold 20 mM potassium phosphate buffer containing 0.14 M KCl, pH 7.0. Protein content was determined by BCA protein assay kit from Pierce.
In vitro KMO activity determination: The enzyme activity was evaluated by measuring by HPLC the formation of 3-OH-KYN in homogenates incubated in the presence of a fixed concentration of KYN (close to the enzyme Km that in our experimental conditions is 30 µM) […]
IC50 values were determined from three independent inhibition curves using at least seven different inhibitor concentrations using non linear regression analysis (best fitting aided-computer program.

KYNA [1] = experiment: Measurement of hippocampal KYNA levels by microdialysis; type: in vivo, rats
Description: Measurement of hippocampal kyna levels: Microdialysis was performed in adult, male rats (Charles-River; 200-250 g). Under anesthesia, a microdialysis probe (CMA/10, membrane length: 2 mm, Carnegie […], Stockholm, Sweden) was implanted vertically into the brain, extending throughout the dorsal hippocampus. On the next day, the probe was connected to a microperfusion pump, and the hippocampus of the unanesthetized rat was perfused with Ringer solution at a speed of 1 microliter/min. Dialysate was collected every 30 min. The concentration of KYNA in the dialysis samples was determined by HPLC with fluorimetric detection, using the analytical procedure described by Wu et al. (Eur. J. Neurosci., 4: 1264-1270,1992).

GLU = experiment: Striatal GLU release by transcerebral microdialysis (caudate); type: in vivo, Wistar rats; conditions: caudate dialysate
Description: (§1) Striatal GLU release: Transcerebral microdialysis tubing having an exposed length of 1 mm for each caudate, were implanted through small burr holes drilled in the skull of anesthetized male Wistar rats. Approximately twelve hours after surgery, in freely moving animals, the membranes were perfused at a flow rate of 3.5 µl/min. After a washout period of approximately one hour, fractions were collected to determine the basal output of KYNA and of GLU. KYNA was measured using HPLC with post column derivatization and fluorometric detection as previously reported. HPLC separation and fluorometric detection was also used for quantitative measurements of GLU (Carpenedo et al 2001, Europ. J. Neuroscience 13, 2141-2147).

KYNA [2] = experiment: KYNA output in caudate dialysate by transcerebral microdialysis; type: in vivo, Wistar rats
Description: as §1

Sequence of KMO (O15229 whole entry, species assumed): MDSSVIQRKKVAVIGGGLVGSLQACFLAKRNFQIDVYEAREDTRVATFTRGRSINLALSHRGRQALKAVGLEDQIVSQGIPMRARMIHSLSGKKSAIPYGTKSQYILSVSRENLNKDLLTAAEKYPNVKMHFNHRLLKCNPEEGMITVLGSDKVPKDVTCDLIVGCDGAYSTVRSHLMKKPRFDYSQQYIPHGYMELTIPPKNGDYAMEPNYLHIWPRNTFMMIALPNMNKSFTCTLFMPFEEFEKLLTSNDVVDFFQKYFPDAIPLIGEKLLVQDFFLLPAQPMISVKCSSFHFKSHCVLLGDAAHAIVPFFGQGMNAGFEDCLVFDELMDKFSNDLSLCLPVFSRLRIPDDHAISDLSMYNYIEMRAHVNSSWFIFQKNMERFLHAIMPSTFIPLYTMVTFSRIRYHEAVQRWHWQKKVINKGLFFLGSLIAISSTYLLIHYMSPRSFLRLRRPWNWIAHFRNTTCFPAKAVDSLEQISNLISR

IC50 (brain KMO; compound preincubated with mitochondria preparation for 30 min before adding the substrate (KYN), compared with IC50 without pre-incubation) | IC50 (brain KMO; in vitro brain KMO, without pre-incubation, KYN 50 µM, 60 min at 37°C, read-out: IC50) | SMILES | IC50 (KMO) | KYNA extracellular concentration, maximum increase (KYNA [1]; hippocampus dialysate, 50 mg/kg ip, 6 hours after drug administration, mean ± SEM, P< 0.01, basal 2.6 ± 0.2 nM) | brain KYNA content (KYNA [1]; hippocampus, 25 and 50 mg/kg i.p., systemic administration) | dialysate KYNA concentration (KYNA [1]; hippocampus, up to 24 h after both 25 and 50 mg/kg i.p., P<0.05) | decrease in GLU concentrations (GLU; 24 h later) | decrease in GLU concentrations (GLU; highest dose (30-100 µmol/kg i.p.), in 2 hrs (maximum), basal 4.3 ± 0.9 µM) | brain KYNA content, maximum increase (KYNA [2]; 180 min after drug administration, basal 13.2 ± 0.1 nM) | increase in dialysate KYNA concentration (KYNA [2]; up to 24 h after 100 µmol/kg i.p.)
 |  | O=C(O)C1CC1C(=O)c1ccc(Cl)c(Cl)c1 (stereo not shown) [2-(3,4-dichlorobenzoyl)-cyclopropane-1-carboxylic acid] | 180 nM |  |  |  |  |  |  | 
not significantly different | 66 nM | O=C(OC[C@H]1O[C@H](O)[C@H](O)[C@@H](O)[C@H]1O)[C@H]1C[C@@H]1C(=O)c1ccc(Cl)c(Cl)c1 |  | 26.7 ± 2.2 nM | dose-dependently increased | significant increase | -65% | -78 ± 8% | +750% | +280%
